Data reported in PMC7738880, “Identification of novel CD44v6-binding peptides that block CD44v6 and deliver a pro-apoptotic peptide to tumors to inhibit tumor growth and metastasis in mice” (Theranostics, 2021).
Residues, ends and D or L forms follow the SMILES beside them.

B1: … peptide (NEW), label not stated (peptide)
peptide: CNEWQLKSC
B2: … peptide (NLN), label not stated (peptide)
peptide: CNLNTIDTC

How the values were obtained:
MDA-MB231 cells [1] = test: Intracellular trafficking with MitoTracker and LysoTracker; type: cell-based, human; settings: peptide 10 µM, 37 °C, 2-4 h, confocal
Description: To examine the intracellular trafficking of peptides cells were incubated with peptides (10 µM) at 37 °C for 2 h and stained with MitoTracker Deep Red FM (ThermoFisher Scientific), a mitochondrial marker. In another set of experiments, cells were incubated with peptides at 37 °C for 4 h and stained with LysoTracker Red DND-99 (ThermoFisher Scientific), a late endosome/lysosome marker. After staining, cells were fixed with 4% paraformaldehyde for 10 min at room temperature, stained with DAPI, and then mounted using ProLong gold anti-fade reagent (ThermoFisher Scientific). Subcellular fluorescence was detected using a confocal microscope (Zeiss).

Panc-1 cells [2] = test: Panc-1 subcutaneous spontaneous metastasis model; type: in vivo, BALB/c nude mouse; settings: 10 mg/kg i.v. thrice weekly for 3 weeks; more efficiently than combined NLN or NEW and KLA
Description: (§1) 4T1-luc cells (1 × 10^6 cells) were orthotopically inoculated into the mammary fat pads in 6-week-old female BALB/c mice. Panc-1 cells (1 × 10^6 cells) were subcutaneously inoculated into lower right flank in 6-week-old female BALB/c nude mice To monitor 4T1-luc tumor growth, mice were intraperitoneally injected with D-luciferin (150 mg/kg body weight), incubated for 10 min, and subjected to a whole-body bioluminescence imaging using the IVIS imaging system (Perkin Elmer). At two weeks after the inoculation, mice were randomly sorted into groups based on the luminescence intensity (4T1-luc) or tumor size (Panc-1). CD44v6-binding peptides were administered intravenously to 4T1 tumor-bearing mice (n = 6 per group) through the tail vein (14.2 mg/kg body weight, thrice weekly for three weeks) alone or in combination with crizotinib. Crizotinib in 5% DMSO was administered orally (12.5 and 25 mg/kg body weight, twice weekly for three weeks). CD44v6-targeted pro-apoptotic peptides or CD44v6-binding peptides and pro-apoptotic peptide in combination were intravenously administered to 4T1 or Panc-1 tumor-bearing mice (n = 10 per group) through the tail vein (10 mg/kg body weight, thrice weekly for 3 weeks). Primary tumor growth was monitored by measuring tumor volumes using a caliper and total photon flux in the whole body using the IVIS imaging system. The body weights and tumor ulceration were monitored throughout the treatment period. At the end of the treatments, half of the mice were used for the collection of blood, sacrificed, and the primary tumor weights and numbers of metastatic tumor nodules in the isolated lungs were determined. The remaining mice were maintained until death to determine the survival rates. The hematological parameters and liver and kidney function markers in plasma and serum samples were analyzed as described above. The normal ranges of hematological parameters of the BALB/c mouse and BALB/c nude mouse were obtained from Charles River Laboratories website (www.criver.com).

4T1 cells = test: Annexin V/propidium iodide apoptosis assay, 4T1; type: cell-based, mouse; settings: 2 h, versus combined NLN or NEW and KLA
Description: (§2) For apoptosis assays, cells were plated in 6-well plates at a density of 5 × 10^5 cells per well overnight and treated with different concentrations of peptides (0, 2, 4, 8, 16, 32, 64, 128, and 256 µM) at 37 °C for 2 h. Cells were harvested, washed, and mixed with annexin V binding buffer. Then, 1 μg/mL of propidium iodide and 5 μL of APC annexin V reagent (ThermoFisher Scientific, Waltham, MA) were added to stain necrotic and apoptotic cells. Percent of annexin V-positive and propidium iodide-negative cells were measured using flow cytometry.

Panc-1 cells [3] = test: Annexin V/propidium iodide apoptosis assay, Panc-1; type: cell-based, human; settings: 2 h, versus combined NLN or NEW and KLA
Description: as §2

MDA-MB231 cells [4] = test: Annexin V/propidium iodide apoptosis assay, MDA-MB231; type: cell-based, human; settings: 2 h, versus combined NLN or NEW and KLA
Description: as §2

4T1-luc cells = test: 4T1-luc orthotopic spontaneous metastasis model; type: in vivo; settings: 10 mg/kg i.v. thrice weekly for 3 weeks; for hematologic parameters and liver and kidney functional marker levels: n = 5/group; for luminescence signals and total photon flux from the whole body: n = 10 per group; for luminescence signals and total photon flux from the whole body / TUNEL-positive apoptotic cells in primary tumor tissues / number of metastatic tumor nodules / percent survival / tumor volume / tumor weight: more efficiently than combined NLN or NEW and KLA
Description: as §1

MDA-MB231-luc cells = test: MDA-MB231-luc experimental lung metastasis model; type: in vivo
Description: A mouse model of lung metastasis of breast cancer was prepared by injecting 1 × 10^6 MDA-MB231-luc cells into 6-week-old female BALB/c nude mice via tail vein. To monitor the localization of the tumor cells in the lungs, the mice were injected intraperitoneally with D-luciferin at a dose of 150 mg/kg body weight and subjected to a whole-body bioluminescence imaging using IVIS imaging system (Perkin Elmer) after a 10-min resting period. Mice (n = 10 per group) were randomly assigned to groups based on the luminescence intensity. At 1 h after tumor cell injection, tumor-bearing mice received intravenous injections of CD44v6-binding peptides through the tail vein (14.2 mg/kg body weight, thrice weekly for 3 weeks) alone or in combination with orally administered crizotinib in 5% dimethyl sulfoxide (DMSO) (25 mg/kg of body weight, twice weekly for 3 weeks) as previously described, [29]. Metastatic tumor growth after treatments was monitored by measuring the total photon flux (number of photons/second) in the whole body using the IVIS imaging system. The body weights of mice and tumor ulceration were monitored throughout the treatment period. At the end of the treatment period, half of the mice (n = 5 per group) were used for the collection of blood, sacrificed, the lungs were harvested and weighed, and the numbers of metastatic tumor nodules in the lungs were counted. The remaining mice (n = 5 per group) were maintained until death to determine the survival rates. For the analysis of hematological parameters, 1 mL of blood was collected from each mouse and separated into 500 µL aliquots used to prepare serum and plasma. Serum was obtained by centrifuging clotted blood at 4 °C twice, followed by filtration (pore size: 0.22 µm). Plasma was obtained by centrifuging ethylenediaminetetraacetic acid-treated samples. Hematological parameters and liver and kidney function markers were measured by DGMIF (Daegu, Korea).

[5] = molecular target: CD44v6, endogenous in MDA-MB231 human breast tumor cells (human (endogenous in MDA-MB231)); test: saturation binding to cells; saturation binding assays on MDA-MB231, 4T1, Panc-1 and MCF7 cells (Figure S2A); method and label of the peptide not given
Sequence of CD44v6, endogenous in MDA-MB231 human breast tumor cells (human (endogenous in MDA-MB231)) (P16070 21-742): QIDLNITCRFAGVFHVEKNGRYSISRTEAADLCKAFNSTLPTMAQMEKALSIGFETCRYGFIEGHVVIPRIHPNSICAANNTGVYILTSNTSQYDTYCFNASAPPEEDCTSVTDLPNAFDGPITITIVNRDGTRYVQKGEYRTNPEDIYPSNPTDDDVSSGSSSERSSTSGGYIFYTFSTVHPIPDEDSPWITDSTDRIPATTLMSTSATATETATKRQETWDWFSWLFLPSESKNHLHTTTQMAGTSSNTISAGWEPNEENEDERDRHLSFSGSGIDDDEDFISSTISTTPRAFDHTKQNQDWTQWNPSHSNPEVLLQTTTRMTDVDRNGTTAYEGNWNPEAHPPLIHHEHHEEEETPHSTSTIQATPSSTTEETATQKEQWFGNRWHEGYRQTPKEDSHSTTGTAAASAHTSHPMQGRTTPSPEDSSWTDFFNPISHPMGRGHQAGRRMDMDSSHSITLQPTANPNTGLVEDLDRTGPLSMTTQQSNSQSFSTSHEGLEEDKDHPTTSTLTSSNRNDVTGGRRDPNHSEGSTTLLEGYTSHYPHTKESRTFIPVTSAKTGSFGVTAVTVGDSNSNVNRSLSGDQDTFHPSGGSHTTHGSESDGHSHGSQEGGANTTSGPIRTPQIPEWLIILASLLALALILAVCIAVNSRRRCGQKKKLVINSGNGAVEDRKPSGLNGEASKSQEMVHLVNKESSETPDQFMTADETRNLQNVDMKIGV

Row | Molecule | intracellular localization (MDA-MB231 cells [1]) | percent survival and TUNEL-positive apoptotic cells in tumor tissues (Panc-1 cells [2]) | tumor growth and metastasis to the lungs (Panc-1 cells [2]) | induction of apoptosis, 4T1 (4T1 cells) | induction of apoptosis, Panc-1 (Panc-1 cells [3]) | induction of apoptosis, MDA-MB231 (MDA-MB231 cells [4]) | hematologic parameters and liver and kidney functional marker levels (4T1-luc cells) | luminescence signals and total photon flux from the whole body (4T1-luc cells) | TUNEL-positive apoptotic cells in primary tumor tissues (4T1-luc cells) | number of metastatic tumor nodules (4T1-luc cells) | percent survival (4T1-luc cells) | tumor volume (4T1-luc cells) | tumor weight (4T1-luc cells) | growth of MDA-MB231-luc metastases in the lungs (MDA-MB231-luc cells; crizotinib 25 mg/kg oral twice weekly for 3 weeks) | survival rate (MDA-MB231-luc cells; peptide 14.2 mg/kg i.v. thrice weekly or crizotinib 25 mg/kg oral twice weekly, 3 weeks, single treatment) | Kd [5]
1 | CC(C)C[C@H](NC(=O)[C@H](CCCCN)NC(=O)CNC(=O)CNC(=O)CNC(=O)[C@H](CS)NC(=O)[C@H](CO)NC(=O)[C@H](CCCCN)NC(=O)[C@H](CC(C)C)NC(=O)[C@H](CCC(N)=O)NC(=O)[C@H](Cc1c[nH]c2ccccc12)NC(=O)[C@H](CCC(=O)O)NC(=O)[C@H](CC(N)=O)NC(=O)[C@@H](N)CS)C(=O)N[C@@H](C)C(=O)N[C@@H](CCCCN)C(=O)N[C@@H](CC(C)C)C(=O)N[C@@H](C)C(=O)N[C@@H](CCCCN)C(=O)N[C@@H](CCCCN)C(=O)N[C@@H](CC(C)C)C(=O)N[C@@H](C)C(=O)N[C@@H](CCCCN)C(=O)N[C@@H](CC(C)C)C(=O)N[C@@H](C)C(=O)N[C@@H](CCCCN)C(=O)O [NEW-KLA] (H-CNEWQLKSCGGGKLAKLAKKLAKLAK-OH) | closely co-localized with mitochondria and lysosomes | increased | inhibited | more efficiently than the combined treatment | more efficiently than the combined treatment | more efficiently than the combined treatment | within or close to the normal ranges | decreased | increasing | reduced | increasing | reduced | reduced | – | – | –
2 | CC[C@H](C)[C@H](NC(=O)[C@@H](NC(=O)[C@H](CC(N)=O)NC(=O)[C@H](CC(C)C)NC(=O)[C@H](CC(N)=O)NC(=O)[C@@H](N)CS)[C@@H](C)O)C(=O)N[C@@H](CC(=O)O)C(=O)N[C@H](C(=O)N[C@@H](CS)C(=O)NCC(=O)NCC(=O)NCC(=O)N[C@@H](CCCCN)C(=O)N[C@@H](CC(C)C)C(=O)N[C@@H](C)C(=O)N[C@@H](CCCCN)C(=O)N[C@@H](CC(C)C)C(=O)N[C@@H](C)C(=O)N[C@@H](CCCCN)C(=O)N[C@@H](CCCCN)C(=O)N[C@@H](CC(C)C)C(=O)N[C@@H](C)C(=O)N[C@@H](CCCCN)C(=O)N[C@@H](CC(C)C)C(=O)N[C@@H](C)C(=O)N[C@@H](CCCCN)C(=O)O)[C@@H](C)O [NLN-KLA] (H-CNLNTIDTCGGGKLAKLAKKLAKLAK-OH) | closely co-localized with mitochondria and lysosomes | increased | inhibited | more efficiently than the combined treatment | more efficiently than the combined treatment | more efficiently than the combined treatment | within or close to the normal ranges | decreased | increasing | reduced | increasing | reduced | reduced | – | – | –
3 | C[C@@H](Oc1cc(-c2cnn(C3CCNCC3)c2)cnc1N)c1c(Cl)ccc(F)c1Cl [crizotinib, reference compound] | – | – | – | – | – | – | – | – | – | – | – | – | – | inhibited | increased the survival rate | –
4 | B1 | – | – | – | – | – | – | – | – | – | – | – | – | – | – | – | 18 µM
5 | B2 | – | – | – | – | – | – | – | – | – | – | – | – | – | – | – | 12 µM
